Measurements as given in US20240270786A1, “STEROID COMPOUNDS” (Epirium Bio Inc., priority 2022, published 2024).

Legend:
[1] = system: mitochondrial ATP synthase; test: ATP synthesis (oxygen consumption, Seahorse XF96) in fresh heart mitochondria; assay type: biochemical, mouse; settings: Complex I or Complex II substrates (FIG. 1, FIG. 2)
Source text: (§1) To assess whether the fraction of synthetic and reverse hydrolytic activities of mitochondrial ATP synthase can be measured in the same preparation, a protocol was developed to monitor changes in oxygen consumption and proton release in response to changes in mitochondrial ATP synthase activity. The proton released and the concomitant changes in the pH can be monitored using the ECAR (extracellular acidification) channel in the Agilent Seahorse XF analyzer using isolated mitochondria, to ensure that the changes in pH cannot be attributed to glycolysis or other contributors to ECAR.
Mice were anesthetized with isoflurane followed by a cervical dislocation, and the heart was immediately removed and placed in ice cold relaxation buffer (5 mM sodium pyrophosphate, 100 mM KCl, 5 mM EGTA, 5 mM HEPES; pH 7.4). […] The mitochondrial pellets were re-suspended in ice cold HES buffer and mitochondrial protein was measured with a BCA assay (Pierce). […]
Oxygen consumption was measured in isolated fresh intact mitochondria from mouse heart, as oxygen consumption is linked to maximal ATP synthesis and proton release when mitochondria are respiring either in the presence of substrates and ADP (ATP synthesizing mitochondria or state 3) or in the presence of substrates but not ADP (state 4). […]

[2] = system: mitochondrial ATP synthase; test: ATP hydrolysis (acidification, Seahorse XF96) in fresh heart mitochondria; assay type: biochemical, mouse; settings: fresh heart mitochondria (FIG. 1, FIG. 2)
Source text: as §1
Mice were anesthetized with isoflurane followed by a cervical dislocation, and the heart was immediately removed and placed in ice cold relaxation buffer (5 mM sodium pyrophosphate, 100 mM KCl, 5 mM EGTA, 5 mM HEPES; pH 7.4). The heart was squeezed with tweezers to remove blood, minced with scissors, and then placed in a glass-glass Dounce homogenizer with 3 mL of HES homogenization buffer (250 mM sucrose, 5 mM HEPES, 1 mM EDTA; pH to 7.2, adjusted with KOH). The heart tissue was homogenized first with the loose pestle and followed by the tight pestle. The homogenized tissue was placed in a pre-chilled 15 mL conical tube and centrifuged at 900×g (4° C.) for 10 minutes (min). The supernatant was removed, placed in a new tube and centrifuged again at 900×g for 10 min. The supernatant was then transferred to 2 mL microcentrifuge tubes and centrifuged at 10,000×g (4° C.) for 10 min. The mitochondrial pellets were re-suspended in ice cold HES buffer and mitochondrial protein was measured with a BCA assay (Pierce). The concentrated mitochondrial pellet was stored on ice. […]
ATP hydrolysis capacity or state 4 acidification was measured using Seahorse XF96 as described in Divakaruni et al. (2018) Anal Biochem 552:60-65 and Acin-Perez et al. (2021) Life 11(9):949, in MAS (70 mM Sucrose, 220 mM Mannitol, 5 mM KH2PO4, 5 mM MgCl2, 1 mM EGTA, 2 mM HEPES; pH 7.2). […]

Structure (SMILES)	ATP synthesis [1]	ATP hydrolysis [2]
CN1C(=O)CC[C@@]2(C)C1=CCC1C2[C@@H](O)C[C@@]2(C)C1CC[C@@H]2NC(=O)C1CC1 (stereo partly drawn) [Compound 26, N-((4aR,5S,6aS,7S)-5-hydroxy-1,4a,6a-trimethyl-2-oxo-2,3,4,4a,4b,5,6,6a,7,8,9,9a,9b,10-tetradecahydro-1H-indeno[5,4-f]quinolin-7-yl)cyclopropanecarboxamide]	decreased ATP synthesis at the highest concentration	only mild changes in hydrolysis
CNC(=O)[C@H]1CCC2C3CC=C4N(C)C(=O)CC[C@]4(C)C3[C@@H](O)C[C@@]21C (stereo partly drawn) [Compound 40, (4aR,5S,6aS)-5-hydroxy-N,1,4a,6a-tetramethyl-2-oxo-2,3,4,4a,4b,5,6,6a,7,8,9,9a,9b,10-tetradecahydro-1H-indeno[5,4-f] quinoline-7-carboxamide]		only mild changes in hydrolysis
